“And” between values parts separate entries of the source, which are not always exact repeats. Identical values can stand only once. Like-named read-outs stand apart in the source and are kept apart here. Values belong to the compound of their own block, whether it stands above or below them.
Key:
C57BL/6 J mice = assay: Open-field test (locomotion and thigmotaxis); type: in vivo, mouse; set-up: Total distance travelled in 50 mins (Figure 6a) / Open-field test, locomotion over time (sheet 6b) / Open-field test, thigmotaxis, whole session (sheet 6c): unit not given here; conditions: for Total distance travelled in 50 mins (Figure 6a) / Open-field test, locomotion over time (sheet 6b) / Open-field test, thigmotaxis over time (sheet 6d) / Open-field test, thigmotaxis, whole session (sheet 6c): individual mice
Method: (§1) Adult […] C57BL/6 J mice (3-6 months old) were provided by Charles River. Both females and males (15 females and 9 males) were used in this study. Sex was evenly distributed across experimental groups. Sex was not considered in the study design or analysis, as no reports indicate differential expression levels of GPR139 between male and female mice. They were housed with ad libitum food and water, in a temperature and humidity-controlled environment under a standard 12 h light/dark cycle. The experiments were performed in agreement with the European Council Directive (86/609/EEC) and approved by the local Animal Ethics Committee at Karolinska Institute (3218-2022). All efforts were made to minimize suffering and the number of animals used. Mice were treated with either 10% DMSO + 10% solutol HS-15 + 80% saline (vehicle, n = 8), compound 1.5 (n = 8, 30 mg/kg i.p.), or JNJ-63533054 (n = 8, 30 mg/kg i.p.), both of which were dissolved in 10% DMSO + 10% solutol HS-15 + 80% saline. Mice were placed in an open field arena 10 min after the injection and recorded for 50 min. Total distance travelled and the time spent in the periphery arena were measured using an automated video tracking system (EthoVision XT 11.5; Noldus). One-way ANOVA followed by Dunnett’s multiple comparisons test and Two-way ANOVA followed by Tukey’s multiple comparisons test were used. Brain and blood samples were taken immediately after the locomotion test. The brain samples were quickly frozen, and blood was drawn from the cervical vein upon decapitation into EP tubes. The samples were immediately centrifuged for 10 min at 3000 × g at 4 °C, and the plasma was transferred into clean polypropylene tubes. All samples were stored at −80 °C before analysis.

[1] = set-up: method as in PMID 26349500; conditions: first hour after treatment; cited from earlier work
[2] = Bioanalysis of compounds in mouse plasma and brain; type: in vivo; conditions: one hour after 30 mg/kg i.p.; for concentration at 1 h: intraperitoneal
Method: as §1
1.5(S) and JNJ-63533054, and the internal standard warfarin, were quantified in plasma and brain tissue samples, using ultraperformance liquid chromatography-tandem mass spectrometry (UPLC-MS/MS). Samples, respective blanks, standards, and quality controls (QCs) were included in each bioanalytical run. For both compounds, the calibration curves in plasma included standards at 0.5–10 µM, and QCs at 1.9–7.6 µM, and those in brain tissue homogenate included standards at 1–25 µM, and QCs at 1–20 µM.
Plasma samples were first diluted 1:2 (v:v) in blank plasma on a 96-well plate (Corning). Thereafter, the samples, along with blank plasma, standards, and QCs, were precipitated by adding 180 µL ice-cold acetonitrile containing 100 nM warfarin to 20 µL sample. Samples were vortexed and centrifuged at 2465 × g, at 4 °C, for 20 min (Centrifuge 5810 R, Eppendorf, Germany). The supernatants were transferred to a new 96-well plate and 2 µL were injected onto the UPLC-column. One hemisphere of the brains was homogenized 1:4 (w:v) with 0.1 % formic acid in 1:1 acetonitrile and methanol (v:v) in tubes containing ceramic beads (Precellys® Hard Tissue Homogenizing CK28 (inert 2.8 ceramic, zirconium oxide, beads), 2 mL, polypropylene co-polymer, Bertin Technologies). The mechanical homogenization was performed using a Minilys homogenizer (Bertin Technologies, France) for 30 s at the highest speed (5000 rpm). The tubes were centrifuged at 5204 × g for 7 min, and the supernatant was transferred to an Eppendorf tube. Subsequently, brain homogenate supernatants, along with supernatants from blank brain homogenate, standards, and QCs, were treated as described for diluted plasma samples. […]

Structure (SMILES): Cc1nocc1-c1nc(CC(=O)NC(C)c2ccccc2)no1 (stereo not shown) [Compound 1.5, CC(C1=CC=CC=C1)NC(CC2=NOC(C3=CON=C3C)=N2)=O]
Total distance travelled in 50 mins (Figure 6a) (C57BL/6 J mice; 30 mg/kg i.p.): 3619.7 and 1516.14 and 932.636 and 2008.89 and 11482.8 and 3961.35 and 3158.61 and 1417.56
Open-field test, locomotion over time (sheet 6b) (C57BL/6 J mice; 5 mins): 1534.71 and 1388.77 and 1295.98 and 638.887 and 1035.03 and 624.833 and 367.922 and 520.924
Open-field test, thigmotaxis over time (sheet 6d) (C57BL/6 J mice; 5 mins, in % (unit assumed)): 58.4267 and 77.1733 and 70.76 and 76.5333 and 44.5867 and 92.2133 and 78.64 and 98.2267
Open-field test, locomotion over time (sheet 6b) (C57BL/6 J mice; 10 mins): 944.829 and 1045.75 and 698.474 and 211.083 and 1038.45 and 297.32 and 169.554 and 251.751
Open-field test, thigmotaxis over time (sheet 6d) (C57BL/6 J mice; 10 mins, in % (unit assumed)): 57.6133 and 89.2933 and 80.9867 and 94.6933 and 45.7733 and 98.64 and 97.4267 and 99.88
Open-field test, locomotion over time (sheet 6b) (C57BL/6 J mice; 15 mins): 724.917 and 289.775 and 194.585 and 64.0034 and 579.982 and 38.8587 and 84.0131 and 202.975
Open-field test, thigmotaxis over time (sheet 6d) (C57BL/6 J mice; 15 mins): 79.1867 and 87.4267 and 100 (4×) and 67.5067 and 98.8533
Open-field test, locomotion over time (sheet 6b) (C57BL/6 J mice; 20 mins): 43.478 and 341.627 and 152.166 and 3.91 and 301.879 and 49.2379 and 23.1583 and 69.7204
Open-field test, thigmotaxis over time (sheet 6d) (C57BL/6 J mice; 20 mins): 100 (5×) and 93.36 and 86.0667 and 98.92
Open-field test, locomotion over time (sheet 6b) (C57BL/6 J mice; 25 mins): 1347.85 and 148.793 and 124.524 and 4.2615 and 37.5095 and 24.1112 and 17.1945 and 57.9976
Open-field test, thigmotaxis over time (sheet 6d) (C57BL/6 J mice; 25 mins): 75.1067 and 91.4267 and 100 (6×)
Open-field test, locomotion over time (sheet 6b) (C57BL/6 J mice; 30 mins): 1735.43 and 147.426 and 152.999 and 41.6297 and 15.7939 and 39.7283 and 43.7378 and 9.443
Open-field test, thigmotaxis over time (sheet 6d) (C57BL/6 J mice; 30 mins): 59.8267 and 99.36 and 97.2933 and 98.9733 and 100 (3×) and 97.7867
Open-field test, locomotion over time (sheet 6b) (C57BL/6 J mice; 35 mins): 1485.83 and 64.3909 and 126.684 and 26.842 and 6.448 and 42.921 and 11.8566 and 37.4144
Open-field test, thigmotaxis over time (sheet 6d) (C57BL/6 J mice; 35 mins): 59.8533 and 100 (6×) and 99.44
Open-field test, locomotion over time (sheet 6b) (C57BL/6 J mice; 40 mins): 1609.58 and 127.219 and 108.3 and 183.443 and 63.0073 and 201.855 and 59.5513 and 1.7683
Open-field test, thigmotaxis over time (sheet 6d) (C57BL/6 J mice; 40 mins, in % (unit assumed)): 53.72 and 93.1467 and 46.96 and 98.3067 and 97.52 and 91.5467 and 99.2 and 100
Open-field test, locomotion over time (sheet 6b) (C57BL/6 J mice; 45 mins): 1163.43 and 158.947 and 183.999 and 73.8724 and 168.393 and 37.8929 and 22.5543 and 382.596
Open-field test, thigmotaxis over time (sheet 6d) (C57BL/6 J mice; 45 mins): 64.4933 and 94.68 and 93.2533 and 100 (4×) and 88.1333
Open-field test, locomotion over time (sheet 6b) (C57BL/6 J mice; 50 mins): 892.776 and 248.648 and 120.895 and 169.632 and 373.205 and 159.384 and 133.094 and 474.296
Open-field test, thigmotaxis over time (sheet 6d) (C57BL/6 J mice; 50 mins): 89.68 and 89.52 and 96.2267 and 100 (3×) and 96.5733 and 99.2533
Open-field test, thigmotaxis, whole session (sheet 6c) (C57BL/6 J mice): 98.132 and 97.2307 and 99.696 and 69.7907 and 91.5387 and 88.492 and 96.8507 and 82.616

concentration at 1 h ([2]; both sexes, C57BL/6 J, brain, read-out: total brain tissue concentration (Cbrain)): 24.8 µM
Kp at 1 h ([2]; both sexes, C57BL/6 J, brain/plasma, ip, single time point, read-out: total brain-to-plasma concentration ratio (Kp,brain)): 1.21 ± 0.12
concentration at 1 h ([2]; both sexes, C57BL/6 J, plasma, read-out: total plasma concentration (Cplasma)): 20.5 µM
total brain tissue concentration (Cbrain) [2]: 24.8 ± 6.2 µM
total plasma concentration (Cplasma) [2]: 20.5 ± 5.3 µM
Structure (SMILES): CC(NC(=O)CNC(=O)c1cccc(Cl)c1)c1ccccc1 (stereo not shown) [JNJ-63533054, reference compound]
locomotor activity [1]: reduction in locomotor activity
thigmotaxis (time in the periphery) (C57BL/6 J mice; 30 mg/kg i.p., vs vehicle): spent more time in the periphery compared to the vehicle group
total distance travelled in the open field arena (C57BL/6 J mice; 30 mg/kg i.p., vs vehicle): results similar to those obtained for JNJ-63533054
Total distance travelled in 50 mins (Figure 6a) (C57BL/6 J mice; 30 mg/kg i.p.): 3359.39 and 1792.13 and 2582.49 and 3979.72 and 2080.85 and 9982.78 and 3772.48 and 918.903
Open-field test, locomotion over time (sheet 6b) (C57BL/6 J mice; 5 mins): 932.272 and 989.458 and 1696.51 and 1348.86 and 505.51 and 1391.08 and 1396.99 and 852.786
Open-field test, thigmotaxis over time (sheet 6d) (C57BL/6 J mice; 5 mins, in % (unit assumed)): 70.24 and 93.24 and 86.6 and 72.9333 and 95.6533 and 59.4533 and 79.16 and 62.2
Open-field test, locomotion over time (sheet 6b) (C57BL/6 J mice; 10 mins): 809.521 and 300.737 and 1208.9 and 562.14 and 33.766 and 906.8 and 199.588 and 129.938
Open-field test, thigmotaxis over time (sheet 6d) (C57BL/6 J mice; 10 mins, in % (unit assumed)): 97.5867 and 98.7467 and 63.5867 and 94.9733 and 100 and 78.9333 and 98.0533 and 99.9733
Open-field test, locomotion over time (sheet 6b) (C57BL/6 J mice; 15 mins): 194.752 and 21.7885 and 924.739 and 354.313 and 27.675 and 233.464 and 23.6513 and 7.655
Open-field test, thigmotaxis over time (sheet 6d) (C57BL/6 J mice; 15 mins): 98.8933 and 100 (4×) and 93.1733 and 95.84 and 98.8533
Open-field test, locomotion over time (sheet 6b) (C57BL/6 J mice; 20 mins): 171.669 and 49.3834 and 612.36 and 167.407 and 0 and 187.813 and 0.8234 and 102.119
Open-field test, thigmotaxis over time (sheet 6d) (C57BL/6 J mice; 20 mins): 99.9467 and 100 (4×) and 97.5333 and 99.0133 and 99.7333
Open-field test, locomotion over time (sheet 6b) (C57BL/6 J mice; 25 mins): 630.708 and 147.757 and 783.223 and 246.73 and 0.6166 and 0.4386 and 0.4195 and 141.542
Open-field test, thigmotaxis over time (sheet 6d) (C57BL/6 J mice; 25 mins): 94.8 and 100 (5×) and 94.6667 and 96.8533
Open-field test, locomotion over time (sheet 6b) (C57BL/6 J mice; 30 mins): 4.719 and 265.963 and 938.142 and 27.3973 and 11.6817 and 61.4941 and 0 and 205.37
Open-field test, thigmotaxis over time (sheet 6d) (C57BL/6 J mice; 30 mins): 100 (5×) and 97.44 and 85.8667 and 98.56
Open-field test, locomotion over time (sheet 6b) (C57BL/6 J mice; 35 mins): 3.326 and 8.572 and 1042.9 and 433.751 and 7.486 and 2.001 and 0.4323 and 246.216
Open-field test, thigmotaxis over time (sheet 6d) (C57BL/6 J mice; 35 mins): 100 (5×) and 84.7333 and 92.4267 and 94.5867
Open-field test, locomotion over time (sheet 6b) (C57BL/6 J mice; 40 mins): 521.05 and 1.596 and 845.25 and 8.083 and 7.72 and 4.549 and 0.4103 and 0.9443
Open-field test, thigmotaxis over time (sheet 6d) (C57BL/6 J mice; 40 mins): 97.24 and 100 (6×) and 95.16
Open-field test, locomotion over time (sheet 6b) (C57BL/6 J mice; 45 mins): 294.43 and 290.485 and 1172.17 and 477.116 and 34.0014 and 4.204 and 168.331 and 0.6994
Open-field test, thigmotaxis over time (sheet 6d) (C57BL/6 J mice; 45 mins): 98.6133 and 97.52 and 87.88 and 86.5333 and 99.8133 and 100 (2×) and 97.44
Open-field test, locomotion over time (sheet 6b) (C57BL/6 J mice; 50 mins): 417.274 and 5.107 and 758.587 and 146.686 and 290.447 and 567.543 and 1.48 and 895.221
Open-field test, thigmotaxis over time (sheet 6d) (C57BL/6 J mice; 50 mins): 94.5733 and 100 (2×) and 95.4133 and 11.7333 and 93.0667 and 88.9333 and 83.48
Open-field test, thigmotaxis, whole session (sheet 6c) (C57BL/6 J mice): 97.4653 and 94.024 and 95.1893 and 98.6947 and 88.4613 and 85.0307 and 98.8533 and 92.4467
